ChEMBL document CHEMBL1158732, “Intercedensides D-I, cytotoxic triterpene glycosides from the sea cucumber Mensamaria intercedens Lampert” (2005)

How the values were obtained:
[1] = Cytotoxicity against human U87MG cells by SRB method; format: functional, U-87MG ATCC; settings: U-87 MG, read-out: ED50 (the source's name)
[2] = tested on: PC-3; assay: Cytotoxicity against human PC3 cells by SRB method; format: functional; settings: read-out: ED50 (the source's name)
[3] = tested on: 1A9; assay: Cytotoxicity against human 1A9 cells by SRB method; format: functional; settings: read-out: ED50 (the source's name)
[4] = tested on: HCT-8; assay: Cytotoxicity against human HCT8 cells by SRB method; format: functional; settings: read-out: ED50 (the source's name)
[5] = tested on: MCF7; assay: Cytotoxicity against human MCF7 cells by SRB method; format: functional; settings: read-out: ED50 (the source's name)
[6] = tested on: CAKI-1; assay: Cytotoxicity against human Caki1 cells by SRB method; format: functional; settings: read-out: ED50 (the source's name)
[7] = tested on: SK-MEL-2; assay: Cytotoxicity against human SK-MEL-2 cells by SRB method; format: functional; settings: read-out: ED50 (the source's name)
[8] = tested on: KB; assay: Cytotoxicity against human KB cells by SRB method; format: functional; settings: read-out: ED50 (the source's name)
[9] = tested on: A549; assay: Cytotoxicity against human A549 cells by SRB method; format: functional; settings: read-out: ED50 (the source's name)
[10] = Cytotoxicity against human KBVIN cells by SRB method; format: functional; settings: read-out: ED50 (the source's name)

SMILES	EC50 [1]	EC50 [2]	EC50 [3]	EC50 [4]	EC50 [5]	EC50 [6]	EC50 [7]	EC50 [8]	EC50 [9]	EC50 [10]
CO[C@@H]1[C@@H](O)[C@H](O[C@@H]2[C@@H](O)[C@H](O[C@H]3[C@H](O)[C@@H](O)[C@H](O[C@H]4[C@H](O[C@H]5CC[C@]6(C)[C@@H]7CC[C@]89C(=O)O[C@@](C)(CCC=C(C)C)[C@@]8(O)[C@@H](OC(C)=O)C[C@@]9(C)C7=CC[C@H]6C5(C)C)OC[C@@H](OS(=O)(=O)[O-])[C@@H]4O)O[C@@H]3CO)OC[C@H]2O)O[C@H](CO)[C@H]1O.[Na+] [INTERCEDENSIDE F]	3.3 µg/mL	2.3 µg/mL	1.7 µg/mL	1.9 µg/mL	2.1 µg/mL	1.7 µg/mL	2.1 µg/mL	3.2 µg/mL	1.7 µg/mL	3.2 µg/mL
CO[C@@H]1[C@@H](O)[C@H](O[C@@H]2[C@@H](O)[C@H](O[C@H]3[C@H](O)[C@@H](O)[C@H](O[C@H]4[C@H](O[C@H]5CC[C@]6(C)[C@@H]7CC[C@]89C(=O)O[C@@](C)(/C=C\C=C(C)C)[C@@]8(O)[C@@H](OC(C)=O)C[C@@]9(C)C7=CC[C@H]6C5(C)C)OC[C@@H](OS(=O)(=O)[O-])[C@@H]4O)O[C@@H]3CO)OC[C@H]2O)O[C@H](CO)[C@H]1O.[Na+] [LNTERCEDENSIDE D]	4.1 µg/mL	3.3 µg/mL	2.4 µg/mL	2.9 µg/mL	2.4 µg/mL	> 5 µg/mL	4.2 µg/mL	3.7 µg/mL	1.8 µg/mL	4.3 µg/mL
CO[C@@H]1[C@@H](O)[C@H](O[C@@H]2[C@@H](O)[C@H](O[C@@H]3CO[C@@H](O[C@H]4[C@H](O[C@H]5CC[C@]6(C)[C@@H]7CC[C@]89C(=O)O[C@@](C)(/C=C\C=C(C)C)[C@@]8(O)[C@@H](OC(C)=O)C[C@@]9(C)C7=CC[C@H]6C5(C)C)OC[C@@H](OS(=O)(=O)[O-])[C@@H]4O)[C@H](O)[C@H]3O)OC[C@H]2O)O[C@H](CO)[C@H]1O.[Na+] [LNTERCEDENSIDE E]	2.1 µg/mL	1.7 µg/mL	1.7 µg/mL	1.1 µg/mL	1.4 µg/mL	1.6 µg/mL	1.6 µg/mL	1.9 µg/mL	1.4 µg/mL	2 µg/mL
CO[C@@H]1[C@@H](O)[C@H](O[C@@H]2[C@@H](O)[C@H](O[C@@H]3CO[C@@H](O[C@H]4[C@H](O[C@H]5CC[C@]6(C)[C@@H]7CC[C@]89C(=O)O[C@@](C)(/C=C\C=C(C)C)C8[C@@H](OC(C)=O)C[C@@]9(C)C7=CC[C@H]6C5(C)C)OC[C@@H](OS(=O)(=O)[O-])[C@@H]4O)[C@H](O)[C@H]3O)OC[C@H]2O)O[C@H](CO)[C@H]1O.[Na+] (stereo not given in full) [LNTERCEDENSIDE G]	3.3 µg/mL	2 µg/mL	1.9 µg/mL	1.8 µg/mL	2 µg/mL	3.8 µg/mL	2.4 µg/mL	3.3 µg/mL	1.6 µg/mL	3.9 µg/mL
CO[C@@H]1[C@@H](O)[C@H](O[C@@H]2[C@@H](O)[C@H](O[C@H]3[C@H](O)[C@@H](O)[C@H](O[C@H]4[C@H](O[C@H]5CC[C@]6(C)[C@@H]7CC[C@]89C(=O)O[C@@](C)(/C=C\C=C(C)C)[C@@]8(O)[C@@H](OC(C)=O)C[C@@]9(C)C7=CC[C@H]6C5(C)C)OC[C@@H](OS(=O)(=O)[O-])[C@@H]4O)O[C@@H]3C)OC[C@H]2O)O[C@H](CO)[C@H]1O.[Na+] [LNTERCEDENSIDE H]	3.2 µg/mL	2.2 µg/mL	0.96 µg/mL	1.9 µg/mL	1.8 µg/mL	1 µg/mL	2.2 µg/mL	3 µg/mL	1.4 µg/mL	3.7 µg/mL
